Experimental data: paper PMC10816276 (International Journal of Molecular Sciences, 2024)
Converted amounts (≈) assume the structure as drawn. “And” between values parts separate entries of the source, which are not always exact repeats. Identical values can stand only once. Like-named read-outs stand apart in the source and are kept apart here.

What was measured:
[1] = tested on: Human melanoma A375 tumor cells; assay: CCK-8 cell proliferation and cytotoxicity assay, A375; assay type: cell-based
Experimental: I. Cell lines and cell culture. Human melanoma A375 tumor cells and human immortalized keratinocyte (HaCaT) non-tumor cells were obtained from Nanjing Pusheng Biomedical Technology Co., Ltd. (Nanjing, China). The cells (A375/HaCaT) were cultured in Dulbecco’s modified Eagle’s medium (DMEM, Gibco, New York, NY, USA) supplemented with 10% (v/v) fetal bovine serum (FBS, Gibco, New York, NY, USA), and incubated at 37 °C with 5% CO2 in a humidified incubator.
II. Cell viability assay. Cell proliferation and cytotoxicity assays were conducted using the Cell counting kit-8 (CCK-8) on A375 and HaCaT cells. Briefly, the cells were initially seeded in 96-well plates at a density of 4 × 10^4 cells per well and incubated for 24 h at 37 °C with 5% CO2 in a humidified incubator. Each treatment was performed in six duplicate wells. The tested compounds were added at various concentrations, and the cells were then incubated for 72 h. Following the incubation period, CCK-8 solution (Dojindo Laboratories, Kumamoto, Japan) was added to each well, and the plates were further incubated for 2 h. The absorbance of each well at 450 nm was measured using an absorbance microplate reader (BioTek ELx800, Winooski, VT, USA). The assay included negative controls in which cells were treated with ultrapure water and positive controls in which cells were treated with 10 µg·mL^−1 taxol. The percentage of cell growth inhibition was calculated using the following Equation (3). (3) Cell growth inhibition rate [%]=B1−B2/B1−B3×100 where B1 represents the absorbance of a mixture containing cells, medium, and CCK-8 solution, B2 represents the absorbance of a mixture containing cells, medium, CCK-8 solution, and the test compound; and B3 represents a mixture containing medium and CCK-8 solution.

ICR mice = assay: Acute oral toxicity, 14 days; assay type: in vivo; details: for Death rate / Death toll (♀/♂): 20 mice; for Toxic Symptoms (♀/♂) Perianal Uncleanliness / Toxic Symptoms (♀/♂) Prone State / Toxic Symptoms (♀/♂) Reduced Activities / Toxic Symptoms (♀/♂) Shortness of Breath: n = 20 mice
Experimental: I. Animals. […] Male and female mice were raised separately in sterile PC transparent cages in the room with a 12 h light-dark cycle. The animal procedures followed the guidelines of the National Institute of Health Guide for the Care and Use of Laboratory Animals and were approved by the Institutional Animal Care and Use Committee (IACUC) of Yunnan Institute of Materia Medica.
II. Acute oral_toxicity. […] In this experiment, a 5% sodium carboxymethyl cellulose solution (5% CMC-Na) was chosen as the Vehicle and the solvent for 6′-O-caffeoylarbutin. […] Each mouse in the Vehicle group received an administration of 40 mL∙kg-1 of 5% CMC-Na. The treatment groups were orally administrated 6′-O-caffeoylarbutin twice within a 24_h period, with an interval of approximately 3.5–4.0 h, by dissolving in 5% CMC-Na at three different concentrations. Following administration, all animals in each group were closely monitored for about 2–5 h to observe any physical changes, monitor body weight, and record the death rate. The surviving mice were observed and monitored for an additional 14 days, with their body weight recorded on the 1st, 3rd, 7th, and 14th days. Animals that died during the experimental period or those that survived until the conclusion of the toxicity test were subjected to necropsy, and their organs were histopathologically observed and analyzed. All studies were conducted in accordance with the requirements of Good Laboratory Practice.

apple juice = assay: Browning inhibitory effect on apple juice; set-up: species or system Zhaotong Red Fuji apples; details: absorbance at 420 nm, compared to apple juice blank control
Experimental: To investigate the anti-browning effect of 6′-O-caffeoylarbutin, apple juice was used following a modified method based on the literature. Zhaotong Red Fuji apples were carefully chosen to ensure uniform shape, color, size, and maturity, free from any physical damage. After peeling, the apples were sliced into 10 g portions. These apple pieces were then immersed in solutions containing different concentrations of 6′-O-caffeoylarbutin for 10 min, followed by homogenization. The homogenized samples were subsequently subjected to centrifugation at 8000 rpm for 5 min at 4 °C, and the resulting supernatant (3 mL) was collected. Simultaneously, a blank control was prepared by extracting apple juice without the addition of any anti-browning agent. The absorbance of the samples at 420 nm was measured using a UV_vis spectrophotometer.

[2] = biological target: T1, Mushroom tyrosinase (mTyr) (Agaricus bisporus, UniProt C7FF04); details: substrate L-tyrosine; previous experiments; Liu et al., 2023; read-out: IC50, monophenolase activity of mTyr; cited from earlier work
T1 construct: purchased Sigma-Aldrich
T1 sequence (C7FF04 1-392): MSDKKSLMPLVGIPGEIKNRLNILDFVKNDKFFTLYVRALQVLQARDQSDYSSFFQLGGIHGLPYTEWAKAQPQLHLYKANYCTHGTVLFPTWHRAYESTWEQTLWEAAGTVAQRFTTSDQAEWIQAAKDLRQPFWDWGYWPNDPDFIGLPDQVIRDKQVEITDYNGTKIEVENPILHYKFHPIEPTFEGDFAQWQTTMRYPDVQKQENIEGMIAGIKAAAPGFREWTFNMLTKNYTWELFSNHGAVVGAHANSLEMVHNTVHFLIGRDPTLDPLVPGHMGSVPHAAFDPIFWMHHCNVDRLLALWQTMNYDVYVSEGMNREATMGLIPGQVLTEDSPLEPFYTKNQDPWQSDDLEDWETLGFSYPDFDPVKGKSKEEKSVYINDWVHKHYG

[3] = biological target: T1, Mushroom tyrosinase (mTyr); details: substrate L-DOPA; previous experiments; Liu et al., 2023; read-out: IC50, diphenolase activity of mTyr; cited from earlier work

O=C(C=Cc1ccc(O)c(O)c1)OCC1OC(Oc2ccc(O)cc2)C(O)C(O)C1O (centres unmarked) [6′-O-caffeoylarbutin]
inhibition rate ([1]; 3.125–100 μg∙mL^−1, 72 h): below 5%
inhibition at 200 µg/mL ([1]; Homo sapiens, A-375, 200 μg∙mL^−1, 72 h, read-out: inhibition rate): 20%
inhibition at 400 µg/mL ([1]; Homo sapiens, A-375, 400 μg∙mL^−1, 72 h, read-out: inhibition rate): 67.8%
IC50 ([1]; Homo sapiens, A-375, 72 h, CCK-8): 313 µg/mL (≈ 721 µM)
Death rate (ICR mice; CA-1, 28056 mg·kg-1 oral): 25%
Death toll (♀/♂) (ICR mice; CA-1, 28056 mg·kg-1 oral): 3/2
Toxic Symptoms (♀/♂) Perianal Uncleanliness (ICR mice; CA-1, 28,056 mg·kg^−1 oral): 0
Toxic Symptoms (♀/♂) Prone State (ICR mice; CA-1, 28,056 mg·kg^−1 oral): 2 (0/2)
Toxic Symptoms (♀/♂) Reduced Activities (ICR mice; CA-1, 28,056 mg·kg^−1 oral): 8 (2/6)
Toxic Symptoms (♀/♂) Shortness of Breath (ICR mice; CA-1, 28,056 mg·kg^−1 oral): 4 (2/2)
Body weight gain (ICR mice; CA-1, Female mice): 2.22 ± 0.62 g
body weight, 1st day after the delivery (ICR mice; CA-1, Female mice): 22.26±0.97
body weight, 3rd day after the delivery (ICR mice; CA-1, Female mice): 24.28±1.18
body weight, 7th day after the delivery (ICR mice; CA-1, Female mice): 24.88±1.09
body weight, 14th day after the delivery (ICR mice; CA-1, Female mice): 27.10±1.39
Body weight gain (ICR mice; CA-1, Male mice): 2.65 ± 1.01 g
body weight, 1st day after the delivery (ICR mice; CA-1, Male mice): 30.75±2.11
body weight, 3rd day after the delivery (ICR mice; CA-1, Male mice): 33.62±2.35
body weight, 7th day after the delivery (ICR mice; CA-1, Male mice): 35.25±2.53
body weight, 14th day after the delivery (ICR mice; CA-1, Male mice): 37.90±3.13
Death rate (ICR mice; CA-2, 23848 mg·kg-1 oral): 5%
Death toll (♀/♂) (ICR mice; CA-2, 23848 mg·kg-1 oral): 0/1
Toxic Symptoms (♀/♂) Perianal Uncleanliness (ICR mice; CA-2, 23,848 mg·kg^−1 oral): 0
Toxic Symptoms (♀/♂) Prone State (ICR mice; CA-2, 23,848 mg·kg^−1 oral): 0
Toxic Symptoms (♀/♂) Reduced Activities (ICR mice; CA-2, 23,848 mg·kg^−1 oral): 1 (0/1)
Toxic Symptoms (♀/♂) Shortness of Breath (ICR mice; CA-2, 23,848 mg·kg^−1 oral): 0
Body weight gain (ICR mice; CA-2, Female mice): 1.88 ± 1.17 g
body weight, 1st day after the delivery (ICR mice; CA-2, Female mice): 21.58±1.21
body weight, 7th day after the delivery (ICR mice; CA-2, Female mice): 23.59±0.50
body weight, 14th day after the delivery (ICR mice; CA-2, Female mice): 25.47±1.36
Body weight gain (ICR mice; CA-2, Male mice): 3.38 ± 1.23 g
body weight, 1st day after the delivery (ICR mice; CA-2, Male mice): 30.91±0.87
body weight, 3rd day after the delivery (ICR mice; CA-2, Male mice): 33.07±1.24
body weight, 7th day after the delivery (ICR mice; CA-2, Male mice): 33.88±1.71
body weight, 14th day after the delivery (ICR mice; CA-2, Male mice): 37.26±2.19
Death toll (♀/♂) (ICR mice; CA-3, 20272 mg·kg-1 oral): 0/0
Toxic Symptoms (♀/♂) Perianal Uncleanliness (ICR mice; CA-3, 20,272 mg·kg^−1 oral): 0
Toxic Symptoms (♀/♂) Prone State (ICR mice; CA-3, 20,272 mg·kg^−1 oral): 0
Toxic Symptoms (♀/♂) Reduced Activities (ICR mice; CA-3, 20,272 mg·kg^−1 oral): 0
Toxic Symptoms (♀/♂) Shortness of Breath (ICR mice; CA-3, 20,272 mg·kg^−1 oral): 0
Body weight gain (ICR mice; CA-3, Female mice): 2.41 ± 1.51 g
body weight, 1st day after the delivery (ICR mice; CA-3, Female mice): 22.21±0.87
body weight, 3rd day after the delivery (ICR mice; CA-3, Female mice): 23.36±0.66
body weight, 14th day after the delivery (ICR mice; CA-3, Female mice): 26.62±1.54
Body weight gain (ICR mice; CA-3, Male mice): 1.45 ± 3.11 g
body weight, 1st day after the delivery (ICR mice; CA-3, Male mice): 30.89±1.57
body weight, 3rd day after the delivery (ICR mice; CA-3, Male mice): 33.88±1.41
body weight, 7th day after the delivery (ICR mice; CA-3, Male mice): 35.33±1.44
body weight, 14th day after the delivery (ICR mice; CA-3, Male mice): 36.78±3.53
deaths (ICR mice; mouse, in vivo): no deaths
formation of browning compounds in apple juice (apple juice): significant reduction in the formation of browning compounds in a dose-dependent manner
IC50 [2]: 1.11 µM and 1.1 µM
IC50 [3]: 95.2 µM
